Results taken from patent US20110039314A1, “Composition for Catalytic Amide Production and Uses Thereof” (LOYOLA UNIVERSITY OF CHICAGO, priority 2009, published 2011).

Columns and labels:
[1] = target: Co-type nitrile hydratase from Pseudonocardia thermophile JCM 3095 (PtNHase) (Pseudonocardia thermophila, UniProt Q7SID2+Q7SID3); conditions: previously reported value (ref. 21); cited from earlier work
[2] = target: Fe-type nitrile hydratase from Comamonas testosteroni Ni1 (CtNHase) (Comamonas testosteroni, UniProt J9PBS0+J9PBS1); conditions: previously reported value (ref. 34); cited from earlier work
[3] = substrate: N#Cc1ccccc1; assay: purified protein, by the assay type; conditions: other: benzonitrile hydrolysis, solution, pH 7.6, 25° C.

For `N#Cc1ccccc1` [benzonitrile], the Km [1] is listed as 19 µM and the kcat [1] is listed as 120 s⁻¹.

For `N#CCCCCC(=O)O` [cyanovaleric acid], the Km [2] is given as 3200 µM.

B1: Co-type nitrile hydratase from Pseudonocardia thermophile JCM 3095 (PtNHase) (Pseudonocardia thermophila) (protein)
chain 1: MTENILRKSDEEIQKEITARVKALESMLIEQGILTTSMIDRMAEIYENEVGPHLGAKVVVKAWTDPEFKKRLLADGTEACKELGIGGLQGEDMMWVENTDEVHHVVVCTLCSCYPWPVLGLPPNWFKEPQYRSRVVREPRQLLKEEFGFEVPPSKEIKVWDSSSEMRFVVLPQRPAGTDGWSEEELATLVTRESMIGVEPAKAV
chain 2: MNGVYDVGGTDGLGPINRPADEPVFRAEWEKVAFAMFPATFRAGFMGLDEFRFGIEQMNPAEYLESPYYWHWIRTYIHHGVRTGKIDLEELERRTQYYRENPDAPLPEHEQKPELIEFVNQAVYGGLPASREVDRPPKFKEGDVVRFSTASPKGHARRARYVRGKTGTVVKHHGAYIYPDTAGNGLGECPEHLYTVRFTAQELWGPEGDPNSSVYYDCWEPYIELVDTKAAAA
Work on B1 yielded a Km [3] of 18 µM and a kcat [3] of 123 s⁻¹.
